Results from patent publication US6696476B2, “Pyranoindazoles and their use for the treatment of glaucoma” (Alcon, Inc., priority 2001, dated 2004).
Structures can show the parent of a compound that is named as a salt. Where two headings read alike, the source gives them in different places.

Columns and labels:
5-HT2A Receptor [1] = target: T1, 5-HT2A Receptor (Rattus norvegicus, UniProt P14842); assay: 5-HT2 Functional Assay: [Ca2+]i Mobilization (FLIPR, A7r5 cells); assay type: cell-based; set-up: endogenous in cells; host or cells: A7r5 rat vascular smooth muscle cells; conditions: for EC50: [Ca2+]i mobilization, A7r5 rat vascular smooth muscle cells; for Emax: read-out: Efficacy (Emax, %)
T1 sequence (P14842 whole entry): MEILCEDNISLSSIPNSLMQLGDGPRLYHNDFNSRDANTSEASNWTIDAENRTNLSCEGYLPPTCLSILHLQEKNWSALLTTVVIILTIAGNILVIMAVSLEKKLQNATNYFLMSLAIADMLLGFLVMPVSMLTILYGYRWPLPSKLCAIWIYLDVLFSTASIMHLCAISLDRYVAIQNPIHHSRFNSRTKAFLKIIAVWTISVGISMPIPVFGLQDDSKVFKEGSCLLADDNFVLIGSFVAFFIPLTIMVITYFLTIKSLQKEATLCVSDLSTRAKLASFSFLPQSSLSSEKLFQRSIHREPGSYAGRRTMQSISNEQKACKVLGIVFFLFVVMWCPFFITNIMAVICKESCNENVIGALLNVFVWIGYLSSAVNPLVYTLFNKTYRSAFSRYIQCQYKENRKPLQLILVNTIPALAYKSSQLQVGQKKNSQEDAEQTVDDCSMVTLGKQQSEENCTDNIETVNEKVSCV
Experimental: The receptor-mediated mobilization on intracellular calcium ([Ca^2+]i) was studied using the Fluorescence Imaging Plate Reader (FLIPR) instrument. Rat vascular smooth muscle cells, A7r5, were grown in a normal media of DMEM/10% FBS and 10 μg/mL gentamycin. Confluent cell monolayers were trypsinized, pelleted, and re-suspended in normal media. Cells were seeded in a 50 μL volume at a density of 20,000 cells/well in a black wall, 96-well tissue culture plate and grown for 2 days.
On the day of the experiment, one vial of FLIPR Calcium Assay Kit dye was re-suspended in 50 mL of a FLIPR buffer consisting of Hank's Balanced Salt Solution (HBSS), 20 mM HEPES, and 2.5 mM probenecid, pH 7.4. Cells were loaded with the calcium-sensitive dye by addition of an equal volume (50 μL) to each well of the 96-well plate and incubated with dye for 1 h at 23° C.
Compounds were diluted 1:50 in 20% DMSO/20% Ethanol. For “hit” screening, compounds were further diluted 1:10 in FLIPR buffer and tested at a final concentration of 10 μM.
The compound plate and cell plate were placed in the FLIPR instrument. At the beginning of an experimental run, a signal test was performed to check the basal fluorescence signal from the dye-loaded cells and the uniformity of the signal across the plate. The basal fluorescence was adjusted between 8000-12000 counts by modifying the exposure time, the camera F-stop, or the laser power. Instrument settings for a typical assay were the following: laser power 0.3-0.6 W, camera F-stop F/2, and exposure time 0.4 sec. An aliquot (25 μL) of the test compound was added to the existing 100 μL dye-loaded cells at a dispensing speed of 50 μL/sec. Fluorescence data were collected in real-time at 1.0 sec intervals for the first 60 secs and at 6.0 sec intervals for an additional 120 secs.

5-HT2A Receptor [2] = target: T1, 5-HT2A Receptor; assay: 5-HT2 Receptor Binding Assay ([125I]DOI competition); set-up: species or system rat or human; conditions: 5-HT2A receptor binding; [125I]DOI displacement, cerebral cortex homogenates
Experimental: Aliquots of post mortem rat or human cerebral cortex homogenates (400 μL) dispersed in 50 mM Tris HCl buffer (pH 7.4) are incubated with [^125I]DOI (80 pM final) in the absence or presence of methiothepin (10 μM final) to define total and non-specific binding, respectively, in a total volume of 0.5 mL. The assay mixture is incubated for 1 hour at 23° C. in polypropylene tubes and the assays terminated by rapid vacuum filtration over Whatman GF/B glass fiber filters previously soaked in 0.3% polyethyleneimine using ice-cold buffer. Test compounds (at different concentrations) are substituted for methiothepin. Filter-bound radioactivity is determined by scintillation spectrometry on a beta counter. The data are analyzed using a non-linear, iterative curve-fitting computer program [Trends Pharmacol. Sci., 16, 413 (1995)] to determine the compound affinity parameter. The concentration of the compound needed to inhibit the [^125I]DOI binding by 50% of the maximum is termed the IC50 or Ki value.

IOP [3] = conditions: monkey; attributed to α1A receptor activity; cited from earlier work
intraocular pressure = assay: IOP Response in Conscious Cynomolgus Monkeys; assay type: in vivo
IOP [4] = conditions: rabbits; cited from earlier work
[5] = percentage of a maximum 5-HT-induced response, A7r5 cells
[6] = 3 hours after dose, dose 300 μg
[7] = 6 hours after dose, dose 300 μg

Row | Structure (SMILES) | melting point [°C] | EC50 (5-HT2A Receptor [1]) [nM] | Emax (5-HT2A Receptor [1]; [5]) [%] | IC50 (5-HT2A Receptor [2]) [nM] | also measured
1 | CC(N)Cn1ncc2ccc3c(c21)CC(O)CO3 (stereo not drawn) | 124 to 125 | – | – | – | –
2 | C[C@H](N)Cn1ncc2ccc3c(c21)C(N)C(O)CO3 (stereo partly drawn) | 84 to 88 | – | – | – | –
3 | COC1c2c(ccc3cnn(C[C@H](C)N)c23)OCC1O (stereo partly drawn) | 105 to 108 | – | – | – | –
4 | C[C@@H](N)Cn1ncc2ccc3c(c21)CC(O)CO3.Cl (stereo partly drawn) | 82 to 86 | – | – | – | –
5 | C[C@H](N)Cc1n[nH]c2ccc3c(c12)CCCO3 (as salt: hydrochloride) [Example 17, (S)-1-Methyl-2-(3,7,8,9-tetrahydro-pyrano[3,2-e]indazol-1-yl)-ethylamine] | 235 to 240 | – | – | – | –
6 | C[C@H](N)Cn1ncc2ccc3c(c21)[C@H](O)[C@H](O)CO3 (relative stereo) [Example 7, (8R*,9S*)-1-((S)-2-Amino-propyl)-1,7,8,9-tetrahydro-pyrano[2,3-g]indazole-8,9-diol] | 115 to 117 | 194 | 85 | 3.73 | –
7 | COc1ccccc1N1CCN(CCCNc2c(C)c(=O)n(C)c(=O)n2C)CC1 [5-methylurapidil] | – | – | – | – | effect on IOP (IOP [3]): lowers IOP
8 | COc1cc(C[C@@H](C)N)c(OC)cc1I [(R)-DOI, reference compound] | – | – | – | – | Percent IOP Reduction ± SEM (intraocular pressure; 1 hour after dose, dose 100 μg): 11.0 ± 4.98%; Percent IOP Reduction ± SEM (intraocular pressure; 3 hours after dose, dose 100 μg): 25.3 ± 2.97%; Percent IOP Reduction ± SEM (intraocular pressure; 6 hours after dose, dose 100 μg): 34.4 ± 4.98%
9 | C[C@H](N)Cn1ncc2ccc3c(c21)CC(O)CO3 (stereo partly drawn) [Example 3, 1-((S)-2-Aminopropyl)-1,7,8,9-tetrahydro-pyrano[2,3-g]indazol-8-ol] | 46 to 51 | 145 | 85 | 2.19 | –
10 | C[C@H](N)Cn1ncc2ccc3c(c21)C[C@@H](O)CO3 [Example 4, (R)-1-((S)-2-Aminopropyl)-1,7,8,9-tetrahydro-pyrano[2,3-g]indazol-8-ol] | 126 to 128 | 65.3 | 92 | 2.25 | Percent IOP Reduction ± SEM (intraocular pressure; 1 hour after dose, dose 300 μg): 7.68 ± 2.91%; Percent IOP Reduction ± SEM (intraocular pressure; [6]): 25.8 ± 3.53%; Percent IOP Reduction ± SEM (intraocular pressure; [7]): 30.2 ± 4.48%
11 | C[C@H](N)Cn1ncc2ccc3c(c21)C[C@H](O)CO3 [Example 5, (S)-1-((S)-2-Aminopropyl)-1,7,8,9-tetrahydro-pyrano[2,3-g]indazol-8-ol] | – | 226 | 70 | 3.44 | Percent IOP Reduction ± SEM (intraocular pressure; 1 hour after dose, dose 300 μg): 7.9 ± 4.06%; Percent IOP Reduction ± SEM (intraocular pressure; [6]): 17.3 ± 3.87%; Percent IOP Reduction ± SEM (intraocular pressure; [7]): 25.1 ± 4.76%
12 | NCCc1c[nH]c2ccc(O)cc12 [Example 5-HT, 5-Hyroxytryptamine, reference compound] | – | – | – | – | Efficacy (Emax, %) (5-HT2A Receptor [1]; [5]): 101%
13 | C[C@H](N)Cn1ncc2ccc3c(c21)C[C@@H](N)CO3.Cl.Cl.Cl [Example 6, (R)-1-((S)-2-Amino-propyl)-1,7,8,9-tetrahydro-pyrano[2,3-g]indazol-8-ylamine Trihydrochloride] | > 300 | 175 | 87 | 6.56 | –
14 | C[C@H](N)Cn1ncc2ccc3c(c21)CCCO3.Cl.Cl [Example 8, (S)-2-(8,9-Dihydro-7H-pyrano[2,3-g]indazol-1-yl)-1-methyl-ethylamine Dihydrochloride] | 95 to 98 | 90 | 85 | 0.686 | –
15 | CCCN(CCC)C1CCc2cccc(O)c2C1 (stereo not drawn) [Example 8-OH-DPAT, 8-hydroxydipropylaminotetralin] | – | – | – | – | effect on IOP (IOP [4]): reduces IOP
16 | C[C@H](N)Cn1ncc2ccc3c(c21)C=CCO3 [Example 9, (S)-1-Methyl-2-(7H-pyrano[2,3-g]indazol-1-yl)-ethylamine] | – | 41.4 | 91 | 0.274 | –
17 | C[C@H](N)Cn1ncc2ccc3c(c21)C[C@@H](OCCO)CO3.Cl.Cl [Example 13, 2-[(R)-1-((S)-2-Aminopropyl)-1,7,8,9-tetrahydro-pyrano[2,3-g]indazol-8-yloxy]-ethanol Dihydrochloride] | > 100 | 121 | 87 | 3.38 | Percent IOP Reduction ± SEM (intraocular pressure; 1 hour after dose, dose 300 μg): 8.3 ± 2.64%; Percent IOP Reduction ± SEM (intraocular pressure; [6]): 21.4 ± 4.18%; Percent IOP Reduction ± SEM (intraocular pressure; [7]): 28.4 ± 3.36%
18 | CC(=O)NCCO[C@H]1COc2ccc3cnn(C[C@H](C)N)c3c2C1 [Example 14, N-[2-[(R)-1-((S)-2-Aminopropyl)-1,7,8,9-tetrahydropyrano[2,3-g]indazol-8-yloxy]-ethyl]acetamide] | 165 to 166 | 202 | 86 | 5.34 | –
19 | C[C@H](N)Cn1ncc2ccc3c(c21)C[C@@H](OCC(N)=O)CO3 [Example 15, 2-[(R)-1-((S)-2-Aminopropyl)-1,7,8,9-tetrahydro-pyrano[2,3-g]indazol-8-yloxy]-acetamide] | – | 178 | 95 | 2.87 | –
20 | C[C@H](N)Cn1ncc2ccc3c(c21)C[C@@H](OCC(=O)OC(C)(C)C)CO3 [Example 16, [(R)-1-((S)-2-Amino-propyl)-1,7,8,9-tetrahydro-pyrano[2,3-g]indazol-8-yloxy]acetic Acid Tert-butyl Ester Dihydrochloride] | – | 424 | 73 | 1.94 | –
21 | C[C@H](N)Cc1n[nH]c2ccc3c(c12)CCCO3 [Example 17, (S)-1-Methyl-2-(3,7,8,9-tetrahydro-pyrano[3,2-e]indazol-1-yl)-ethylamine] | – | 154 | 88 | 0.79 | –
